“And” between values parts separate entries of the source, which are not always exact repeats. Equal values may be shown once.
How the values were obtained:
Cricetinae gen. sp. [1] = assay: Effect on total serum cholesterol in male hamsters at a dose of 25 mg/kg orally administered for 14 days; format: functional, Cricetulus griseus; settings: route oral
Cricetinae gen. sp. [2] = assay: Percentage lowering of the total serum cholesterol in male hamsters at a dose of 200 […] orally administered for 14 days; format: functional, Cricetulus griseus
Cricetinae gen. sp. [3] = assay: Percentage lowering of the total serum cholesterol in male hamsters at a dose of 100 […] orally administered for 14 days; format: functional, Cricetulus griseus
Cricetinae gen. sp. [4] = assay: Effect on total serum cholesterol in male hamsters at a dose of 50 mg/kg orally administered for 14 days; format: functional, Cricetulus griseus; settings: route oral
Cricetinae gen. sp. [5] = assay: Effect on total serum cholesterol in male hamsters at a dose of 100 mg/kg orally administered for 14 days; format: functional, Cricetulus griseus; settings: route oral
Cricetinae gen. sp. [6] = assay: Percentage lowering of the total serum cholesterol in male hamsters at a dose of 150 […] orally administered for 14 days; format: functional, Cricetulus griseus
Cricetinae gen. sp. [7] = assay: Effect on total serum cholesterol in male hamsters at a dose of 150 mg/kg orally administered for 14 days; format: functional, Cricetulus griseus; settings: route oral
Cricetinae gen. sp. [8] = assay: Effect on total serum cholesterol in male hamsters at a dose of 10 mg/kg orally administered for 14 days; format: functional, Cricetulus griseus; settings: route oral
Cricetinae gen. sp. [9] = assay: Percentage lowering of the total serum cholesterol in male hamsters at a dose of 5 mg/dL orally administered for 14 days; format: functional, Cricetulus griseus
Cricetinae gen. sp. [10] = assay: Percentage lowering of the total serum cholesterol in male hamsters at a dose of 10 […] orally administered for 14 days; format: functional, Cricetulus griseus
Cricetinae gen. sp. [11] = assay: Effect on total serum cholesterol in male hamsters at a dose of 200 mg/kg orally administered for 14 days; format: functional, Cricetulus griseus; settings: route oral
Cricetinae gen. sp. [12] = assay: Effect on total serum cholesterol in male hamsters at a dose of 5 mg/kg orally administered for 14 days; format: functional, Cricetulus griseus; settings: route oral
Cricetinae gen. sp. [13] = assay: Percentage lowering of the total serum cholesterol in male hamsters at a dose of 25 mg/dL orally administered for 14 days; format: functional, Cricetulus griseus
Cricetinae gen. sp. [14] = assay: Percentage lowering of the total serum cholesterol in male hamsters at a dose of 50 mg/dL orally administered for 14 days; format: functional, Cricetulus griseus
Cricetinae gen. sp. [15] = assay: Effect on total serum cholesterol in male hamsters at a dose of 60 mg/kg orally administered for 3 days; format: functional, Cricetulus griseus; settings: route oral
Cricetinae gen. sp. [16] = assay: Percentage increase of the total serum cholesterol in male hamsters at a dose of 10 […] orally administered for 14 days; format: functional, Cricetulus griseus
Cricetinae gen. sp. [17] = assay: Percentage increase of the total serum cholesterol in male hamsters at a dose of 25 […] orally administered for 14 days; format: functional, Cricetulus griseus
Cricetinae gen. sp. [18] = assay: Percentage lowering of the total serum cholesterol in male hamsters at a dose of 60 […] orally administered for 3 days; format: functional, Cricetulus griseus
[19] = biological target: T1, Steroid 17-alpha-hydroxylase/17,20 lyase (Homo sapiens, UniProt P05093); assay: Binding affinity for […] 17-alpha-hydroxylase
T1 sequence (P05093 whole entry): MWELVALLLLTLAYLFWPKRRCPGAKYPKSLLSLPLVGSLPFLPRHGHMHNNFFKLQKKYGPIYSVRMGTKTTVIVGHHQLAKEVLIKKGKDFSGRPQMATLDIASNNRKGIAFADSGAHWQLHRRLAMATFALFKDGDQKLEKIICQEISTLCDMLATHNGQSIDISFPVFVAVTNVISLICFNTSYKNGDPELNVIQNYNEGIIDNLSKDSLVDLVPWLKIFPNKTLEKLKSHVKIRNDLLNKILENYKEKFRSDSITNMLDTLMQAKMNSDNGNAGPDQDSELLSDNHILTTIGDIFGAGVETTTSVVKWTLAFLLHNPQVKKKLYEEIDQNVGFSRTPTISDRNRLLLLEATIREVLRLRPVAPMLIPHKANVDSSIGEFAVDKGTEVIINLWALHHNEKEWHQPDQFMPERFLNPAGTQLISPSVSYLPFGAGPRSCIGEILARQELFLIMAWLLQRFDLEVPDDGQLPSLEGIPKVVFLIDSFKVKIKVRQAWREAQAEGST

Homo sapiens = species on record: Homo sapiens; assay: Inhibition of cellular cholesterol biosynthesis using human fibroblasts in tissue culture; format: functional, organism-based
Cricetinae gen. sp. [20] = assay: Effect on total serum cholesterol in male hamsters at a dose of 30 mg/kg orally administered for 3 days; format: functional, Cricetulus griseus; settings: route oral
Cytochrome P450 3A4 = Cytochrome P450 3A4 (Homo sapiens, UniProt P08684); assay: Binding affinity for progesterone 6-beta-hydroxylase of hepatic microsomes; format: ADME
Sequence of Cytochrome P450 3A4 (P08684 whole entry): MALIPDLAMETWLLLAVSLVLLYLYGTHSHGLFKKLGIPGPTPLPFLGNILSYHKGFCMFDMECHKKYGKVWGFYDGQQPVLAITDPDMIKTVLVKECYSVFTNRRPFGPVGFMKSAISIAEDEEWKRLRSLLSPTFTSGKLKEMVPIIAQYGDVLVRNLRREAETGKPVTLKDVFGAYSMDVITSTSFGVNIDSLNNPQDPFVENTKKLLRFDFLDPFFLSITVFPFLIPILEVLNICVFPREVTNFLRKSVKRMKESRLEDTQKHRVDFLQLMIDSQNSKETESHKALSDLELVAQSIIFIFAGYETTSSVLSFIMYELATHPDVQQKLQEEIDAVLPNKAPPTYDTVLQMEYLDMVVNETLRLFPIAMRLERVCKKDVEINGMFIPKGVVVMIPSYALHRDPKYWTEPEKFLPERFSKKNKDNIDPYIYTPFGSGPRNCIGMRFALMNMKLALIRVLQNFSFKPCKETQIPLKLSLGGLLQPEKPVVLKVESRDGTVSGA

[21] = biological target: T1, Steroid 17-alpha-hydroxylase/17,20 lyase; assay: Binding affinity for progesterone 17-alpha,20-lyase
[22] = biological target: T2, Cytochrome P450 11B1, mitochondrial (Homo sapiens, UniProt P15538); assay: Binding affinity for corticoid 11-beta-hydroxylase
T2 sequence (P15538 whole entry): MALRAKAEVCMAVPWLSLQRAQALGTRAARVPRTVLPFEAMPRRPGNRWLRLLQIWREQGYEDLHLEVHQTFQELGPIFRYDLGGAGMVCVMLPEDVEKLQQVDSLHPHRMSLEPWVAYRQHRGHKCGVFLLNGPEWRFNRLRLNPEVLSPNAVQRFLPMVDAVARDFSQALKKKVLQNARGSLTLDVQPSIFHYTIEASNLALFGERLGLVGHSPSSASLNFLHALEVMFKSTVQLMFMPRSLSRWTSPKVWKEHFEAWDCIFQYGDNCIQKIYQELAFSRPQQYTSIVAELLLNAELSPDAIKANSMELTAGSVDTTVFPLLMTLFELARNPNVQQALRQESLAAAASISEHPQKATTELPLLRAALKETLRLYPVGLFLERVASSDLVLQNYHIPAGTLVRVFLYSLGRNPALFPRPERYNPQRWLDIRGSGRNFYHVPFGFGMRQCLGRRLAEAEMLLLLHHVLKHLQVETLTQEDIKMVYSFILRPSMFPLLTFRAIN

Cricetinae gen. sp. [23] = assay: Percentage lowering of the total serum cholesterol in male hamsters at a dose of 30 mg/dL orally administered for 3 days; format: functional, Cricetulus griseus
Aromatase = biological target: T3, Aromatase (Homo sapiens, UniProt P11511); assay: Binding affinity for Cytochrome P450 19A1
T3 sequence (P11511 whole entry): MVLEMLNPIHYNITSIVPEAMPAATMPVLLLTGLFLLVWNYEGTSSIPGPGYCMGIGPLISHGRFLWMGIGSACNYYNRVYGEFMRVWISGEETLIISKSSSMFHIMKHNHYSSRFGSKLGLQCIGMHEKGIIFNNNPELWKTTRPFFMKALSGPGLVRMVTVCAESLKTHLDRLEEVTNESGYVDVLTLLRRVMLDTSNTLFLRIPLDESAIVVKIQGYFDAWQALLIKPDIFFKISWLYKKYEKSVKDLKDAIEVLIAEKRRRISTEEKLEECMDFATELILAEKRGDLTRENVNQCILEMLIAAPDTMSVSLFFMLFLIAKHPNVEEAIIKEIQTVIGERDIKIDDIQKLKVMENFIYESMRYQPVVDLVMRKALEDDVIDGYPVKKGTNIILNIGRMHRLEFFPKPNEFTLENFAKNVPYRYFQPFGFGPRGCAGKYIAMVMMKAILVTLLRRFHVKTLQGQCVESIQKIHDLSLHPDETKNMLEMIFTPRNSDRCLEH

[24] = Inhibition of lanosterol 14-alpha-demethylation in hepatic microsomes from rat; format: functional, Liver
Cricetinae gen. sp. [25] = assay: Percentage lowering of the total serum cholesterol in male hamsters at a dose of 100 […] orally administered for 3 days; format: functional, Cricetulus griseus
Cricetinae gen. sp. [26] = assay: Effect on total serum cholesterol in male hamsters at a dose of 100 mg/kg orally administered for 3 days; format: functional, Cricetulus griseus; settings: route oral
Cricetinae gen. sp. [27] = assay: Percentage lowering of the total serum cholesterol in male hamsters at a dose of 10 […] orally administered for 3 days; format: functional, Cricetulus griseus
Cricetinae gen. sp. [28] = assay: Effect on total serum cholesterol in male hamsters at a dose of 10 mg/kg orally administered for 3 days; format: functional, Cricetulus griseus; settings: route oral
[29] = Inhibition of lanosterol 14-alpha-demethylation in hepatic microsomes from human; format: functional, Liver
[30] = Inhibition of lanosterol 14-alpha-demethylation in hepatic microsomes from hamster; format: functional, Cricetulus griseus, Liver

**Q.** Which TC (Cricetinae gen. sp. [1]; 25 mg/kg) does the source give for CC[C@H](C)C(=O)O[C@H]1C[C@@H](C)C=C2C=C[C@H](C)[C@H](CC[C@@H]3C[C@@H](O)CC(=O)O3)[C@H]21 [LOVASTATIN] here?
**A.** 111.2 mg/dL and 114 mg/dL

**Q.** And the Lowering (Cricetinae gen. sp. [2])?
**A.** 38%

**Q.** What about the Lowering (Cricetinae gen. sp. [3]) of the same molecule?
**A.** 26%

**Q.** And the TC (Cricetinae gen. sp. [4]; 50 mg/kg)?
**A.** 99.4 mg/dL and 102 mg/dL

**Q.** And the TC (Cricetinae gen. sp. [5])?
**A.** 94.9 mg/dL

**Q.** And the Lowering (Cricetinae gen. sp. [6])?
**A.** 37%

**Q.** And the TC (Cricetinae gen. sp. [7])?
**A.** 80.3 mg/dL

**Q.** And the TC (Cricetinae gen. sp. [8])?
**A.** 102.8 mg/dL

**Q.** And the Lowering (Cricetinae gen. sp. [9])?
**A.** 5%

**Q.** What about the Lowering (Cricetinae gen. sp. [10]) of the same molecule?
**A.** 13%

**Q.** And the TC (Cricetinae gen. sp. [11])?
**A.** 79.5 mg/dL

**Q.** And the TC (Cricetinae gen. sp. [12])?
**A.** 112.2 mg/dL

**Q.** And the Lowering (Cricetinae gen. sp. [13])?
**A.** 6% and 10%

**Q.** What about the Lowering (Cricetinae gen. sp. [14]) of the same molecule?
**A.** 16% and 19%

**Q.** For Nc1ccc(SC[C@@H]2CO[C@@](CCc3ccc(Cl)cc3)(Cn3ccnc3)O2)cc1, which TC (Cricetinae gen. sp. [1]) is on record?
**A.** 125.8 mg/dL

**Q.** What about the Lowering (Cricetinae gen. sp. [3]) of the same molecule?
**A.** 4%

**Q.** And the TC (Cricetinae gen. sp. [4])?
**A.** 112.4 mg/dL

**Q.** What about the TC (Cricetinae gen. sp. [5]) of the same molecule?
**A.** 113.3 mg/dL

**Q.** And the TC (Cricetinae gen. sp. [15])?
**A.** 120.4 mg/dL

**Q.** What about the Increase (Cricetinae gen. sp. [16]) of the same molecule?
**A.** 6%

**Q.** And the Increase (Cricetinae gen. sp. [17])?
**A.** 6%

**Q.** What about the TC (Cricetinae gen. sp. [8]) of the same molecule?
**A.** 125.2 mg/dL

**Q.** And the Lowering (Cricetinae gen. sp. [14])?
**A.** 6%

**Q.** And the Lowering (Cricetinae gen. sp. [18])?
**A.** 15%

**Q.** For Nc1ccc(SC[C@@H]2CO[C@](CCc3ccc(Cl)cc3)(Cn3ccnc3)O2)cc1 [AZALANSTAT], which TC (Cricetinae gen. sp. [1]) is on record?
**A.** 82.9 mg/dL

**Q.** And the Ki [19]?
**A.** 1620 nM

**Q.** What about the TC (Cricetinae gen. sp. [4]) of the same molecule?
**A.** 74.7 mg/dL

**Q.** What about the IC50 (Homo sapiens) of the same molecule?
**A.** 0.09 nM

**Q.** And the TC (Cricetinae gen. sp. [20])?
**A.** 71 mg/dL

**Q.** What about the Ki (Cytochrome P450 3A4) of the same molecule?
**A.** 28 nM

**Q.** And the Ki [21]?
**A.** 447 nM

**Q.** What about the Ki [22] of the same molecule?
**A.** 35 nM

**Q.** And the Lowering (Cricetinae gen. sp. [23])?
**A.** 36%

**Q.** And the TC (Cricetinae gen. sp. [8])?
**A.** 104 mg/dL

**Q.** And the Ki (Aromatase)?
**A.** 7.6 nM

**Q.** What about the Lowering (Cricetinae gen. sp. [9]) of the same molecule?
**A.** 2%

**Q.** And the Ki [24]?
**A.** 2.5 nM

**Q.** What about the Lowering (Cricetinae gen. sp. [10]) of the same molecule?
**A.** 12%

**Q.** And the Lowering (Cricetinae gen. sp. [25])?
**A.** 62%

**Q.** What about the TC (Cricetinae gen. sp. [12]) of the same molecule?
**A.** 115.5 mg/dL

**Q.** What about the Lowering (Cricetinae gen. sp. [13]) of the same molecule?
**A.** 30%

**Q.** And the TC (Cricetinae gen. sp. [26])?
**A.** 41.8 mg/dL

**Q.** And the Lowering (Cricetinae gen. sp. [27])?
**A.** 23%

**Q.** What about the Lowering (Cricetinae gen. sp. [14]) of the same molecule?
**A.** 37%

**Q.** And the TC (Cricetinae gen. sp. [28])?
**A.** 85.1 mg/dL

**Q.** And the Ki [29]?
**A.** 0.79 nM

**Q.** What about the Ki [30] of the same molecule?
**A.** 1.4 nM
